Test results from patent EP0185020B1, “NI[…] PREPARATION THEREOF AND UTILIZATION THEREOF IN ANTICANCEROUS CHEMIOTHERAPY” (CENTRE NATIONAL DE LA RECHERCHE SCIENTIFIQUE (CNRS), priority 1984, dated 1985).
Like-named read-outs stand apart in the source and are kept apart here.

Experiments:
[1] = test system: leucémie L 1210 greffée i.p.; assay: Antitumour activity on L1210 leukaemia grafted i.p. in mice, A1 and A2 injected separately (ICIG, Example 12); format: in vivo, souris B6D2F1/OLA; details: for activité antitumorale sur la leucémie L 1210, in words: each isomer given separately i.v.; for T/C × 100: i.v.
Description: Au jour J: 0, des souris mâles B6D2F1 âgées de trois mois reçoivent par voie intrapéritonéale 10^5 cellules de la souche leucémique L 1210. Les animaux sont répartis en lots de 8 à 10 animaux pour les groupes témoins et de 6 à 8 animaux pour les groupes traités. Aux jours J : 1, J : 5, J : 9, les animaux reçoivent par voie intrapéritonéale ou intraveineuse le traitement à différentes doses. La CNCC est administrée en suspension dans l'huile d'olive. Les produits selon l'invention sont administrés dans du sérum physiologique. La mortalité est enregistrée tous les jours. La médiane de survie des animaux traités et des animaux témoins a été déterminée. Les résultats sont considérés comme positifs lorsque l'index I = [formula] est supérieur à 125.
La valeur ∞ signifie que 50 à 100% des animaux sont survivants au jour J : 90.
L'activité cytostatique sur la leucémie L 1210 de A, et A2 a été évaluée à l'ICIG chez des souris B6D2F1/OLA.
II a en outre été procédé à l'ICIG à une étude de l'activité antitumorale sur la leucémie L 1210 de chaque isomère A, et AZ administré séparément par voie intraveineuse. Les résultats sont rassemblés sur le tableau IV. […] La comparaison des doses actives à celles de la CNCC est impossible pour les raisons d'insolubilité de la CNCC énoncées précédemment.

[2] = test system: Leucémie L 1210 (greffée par voie i.c.); design: key: N.S.: Non significatif; ∞: 50% en plus des animaux traités sont guéris; details: Leucémie L 1210 i.c., jours 1,5,9, cited from earlier work
[3] = test system: Carcinome pulmonaire de Lewis (implanté en sous-cutané); design: key: N.S.: Non significatif; ∞: 50% en plus des animaux traités sont guéris; details: jours 1,5,9, cited from earlier work
[4] = test system: Mélano-carcinome B 16 (implanté en sous-cutané); design: key: N.S.: Non significatif; ∞: 50% en plus des animaux traités sont guéris; details: Mélano-carcinome B 16 s.c., jours 1,5,9, cited from earlier work
[5] = test system: Gliome 26 (implanté en sous-cutané); design: key: N.S.: Non significatif; ∞: 50% en plus des animaux traités sont guéris; details: Gliome 26 s.c., jours 1,5,9, cited from earlier work
[6] = test system: Adénocarcinome mammaire TM2 (implanté en sous-cutané); design: key: N.S.: Non significatif; ∞: 50% en plus des animaux traités sont guéris; details: jours 1,5,9, cited from earlier work
[7] = test system: Fibrosarcome I.C.I.G. C1 (implanté en sous-cutané); design: key: N.S.: Non significatif; ∞: 50% en plus des animaux traités sont guéris; details: jours 1,5,9, cited from earlier work
[8] = test system: Carcinome du côlon (côlon 26) (implanté en sous-cutané); design: key: N.S.: Non significatif; ∞: 50% en plus des animaux traités sont guéris; details: Carcinome du côlon (côlon 26) s.c., jours 1,5,9, cited from earlier work
[9] = test system: M 555 ovarienne (implanté en sous-cutané); design: key: N.S.: Non significatif; ∞: 50% en plus des animaux traités sont guéris; details: M 555 ovarienne s.c., jours 1,5,9, cited from earlier work

## C[S+]([O-])CCN(N=O)C(=O)NCCCl (stereo not drawn) [A1]
[1]
  activité antitumorale sur la leucémie L 1210, in words: faible activité
[1]; 5 mg/kg
  T/C × 100: 100
[1]; 10 mg/kg
  T/C × 100: 100
[1]; 20 mg/kg
  T/C × 100: 133
[1]; 30 mg/kg
  T/C × 100: 133
[1]; 40 mg/kg
  T/C × 100: 158
[1]; 50 mg/kg
  T/C × 100: 158
[1]; 60 mg/kg
  T/C × 100: Toxique

## C[S+]([O-])CCNC(=O)N(CCCl)N=O (stereo not drawn) [A2]
[1]
  activité antitumorale sur la leucémie L 1210, in words: forte activité
[1]; 1 mg/kg
  T/C × 100: 100
[1]; 5 mg/kg
  T/C × 100: ∞ (La valeur ∞ signifie que 50 à 100% des animaux sont survivants au jour J : 90)
[1]; 10 mg/kg
  T/C × 100: ∞ (La valeur ∞ signifie que 50 à 100% des animaux sont survivants au jour J : 90)
[1]; 20 mg/kg
  T/C × 100: 63
[1]; 30 mg/kg
  T/C × 100: 63
[1]; 40 mg/kg
  T/C × 100: 63

## O=NN(CCCl)C(=O)N[C@H]1C(O)O[C@H](CO)[C@@H](O)[C@@H]1O (stereo partly drawn) [CHLOROZOTOCINE]
[2]; 15 mg/kg I.P.
  Augmentation de la durée de survie (I.L.S.: T/C×100): N.S.
[3]; 15 mg/kg I.P.
  Augmentation de la durée de survie (I.L.S.: T/C×100): N.S.
[4]; 15 mg/kg I.P.
  Augmentation de la durée de survie (I.L.S.: T/C×100): N.S.
[5]; 15 mg/kg I.P.
  Augmentation de la durée de survie (I.L.S.: T/C×100): N.S.
[6]; 15 mg/kg I.P.
  Augmentation de la durée de survie (I.L.S.: T/C×100): N.S.
[7]; 15 mg/kg I.P.
  Augmentation de la durée de survie (I.L.S.: T/C×100): ∞ (50% en plus des animaux traités sont guéris)
[8]; 15 mg/kg I.P.
  Augmentation de la durée de survie (I.L.S.: T/C×100): ∞ (50% en plus des animaux traités sont guéris)
[9]; 15 mg/kg I.P.
  Augmentation de la durée de survie (I.L.S.: T/C×100): ∞ (50% en plus des animaux traités sont guéris)

## O=NN(CCCl)C(=O)NCCO [HECNU]
[2]; 10 mg/kg I.P.
  Augmentation de la durée de survie (I.L.S.: T/C×100): ∞ (50% en plus des animaux traités sont guéris)
[3]; 10 mg/kg I.P.
  Augmentation de la durée de survie (I.L.S.: T/C×100): ∞ (50% en plus des animaux traités sont guéris)
[4]; 10 mg/kg I.P.
  Augmentation de la durée de survie (I.L.S.: T/C×100): 198
[5]; 10 mg/kg I.P.
  Augmentation de la durée de survie (I.L.S.: T/C×100): 182
[6]; 10 mg/kg I.P.
  Augmentation de la durée de survie (I.L.S.: T/C×100): 165
[7]; 10 mg/kg I.P.
  Augmentation de la durée de survie (I.L.S.: T/C×100): N.S.
[8]; 10 mg/kg I.P.
  Augmentation de la durée de survie (I.L.S.: T/C×100): ∞ (50% en plus des animaux traités sont guéris)
[9]; 10 mg/kg I.P.
  Augmentation de la durée de survie (I.L.S.: T/C×100): 210

## CC1(C)O[C@@H]2[C@@H](COC(=O)c3ccc([N+](=O)[O-])cc3)OC(NC(=O)N(CCCl)N=O)[C@@H]2O1 (stereo partly drawn) [RFCNU]
[2]; 20 mg/kg I.P.
  Augmentation de la durée de survie (I.L.S.: T/C×100): 167
[3]; 20 mg/kg I.P.
  Augmentation de la durée de survie (I.L.S.: T/C×100): N.S.
[4]; 20 mg/kg I.P.
  Augmentation de la durée de survie (I.L.S.: T/C×100): 144
[5]; 20 mg/kg I.P.
  Augmentation de la durée de survie (I.L.S.: T/C×100): N.S.
[6]; 20 mg/kg I.P.
  Augmentation de la durée de survie (I.L.S.: T/C×100): N.S.
[7]; 20 mg/kg I.P.
  Augmentation de la durée de survie (I.L.S.: T/C×100): ∞ (50% en plus des animaux traités sont guéris)
[8]; 20 mg/kg I.P.
  Augmentation de la durée de survie (I.L.S.: T/C×100): N.S.
[9]; 20 mg/kg I.P.
  Augmentation de la durée de survie (I.L.S.: T/C×100): N.S.
